Test results published in a melting point compilation (Tetko et al.; mined from patent text by program, amines drawn as free bases though some values may be those of a salt).

Row | Compound | melting point
1 | CN(C(=S)c1ccc([N+](=O)[O-])cc1)C1CCN(C2CCCCC2)C1 (stereo unspecified) | 108 to 110 °C
2 | COC(=O)c1cc(C(=O)OC)cc(N(C)C)c1 | 118 to 121 °C
3 | CSc1c(O)ccc2c1[nH]c1ccccc12 | 137 to 138 °C
4 | Nc1cc(-c2noc(-c3cnc4ccc(-c5ccc(C(F)(F)F)cc5)cn34)n2)ccn1 | 280 °C
5 | ON=C1CCCc2c1ccc1ccccc21 | 174 to 175 °C
6 | N=C(N)NC[C@H]1CC[C@H](C(=O)O)CC1 | 206 to 208 °C
7 | O=[N+]([O-])c1ccc(Nc2ccc(C(F)(F)C(F)(F)C(F)(F)C(F)(F)C(F)(F)C(F)(F)F)cc2)c([N+](=O)[O-])c1 | 145 to 146 °C
8 | O=C1Nc2c(ccc3ccccc23)OC1c1ccc(Cl)cc1 (stereo unspecified) | 230 to 232 °C
9 | CCCCOc1ccc(C(=O)NCCC(=O)O)cc1 | 144 to 146 °C
10 | CCn1c(=O)oc2cc(N3C[C@H](C(N)=O)OC3=O)ccc21 | 234 to 236 °C
11 | CCOc1ccc(-c2ccc(N3CC(CNC(C)=O)OC3=O)cc2)ccc1=O (stereo unspecified) | 228 to 229 °C
12 | Cc1ccc(C(=S)CCCCCl)cc1 | 87 to 89 °C
13 | CCCCOCCOc1ccc(-c2ccc3c(c2)C=C(C(=O)Nc2ccc(CC(=O)c4nccn4CCC)cc2)CCN3CC(C)C)cc1 | 136 to 138 °C
14 | O=C(Nc1ccc2cc(CN3CCCC3)cnc2c1F)c1ccc(-c2ccc(Cl)cc2)cc1 | 206 to 208 °C
15 | CC(C)c1nc(COCc2ccccc2)n(C(C)F)c1Sc1cc(Cl)cc(Cl)c1 (stereo unspecified) | 131 to 132 °C
16 | O=C1C(Br)CCN1c1ncc(C(F)(F)F)s1 (stereo unspecified) | 105 to 106 °C
17 | CCn1c(C)c(C2(N(c3ccccc3)c3ccccc3)OC(=O)c3cccnc32)c2ccccc21 (stereo unspecified) | 132 to 136 °C
18 | COc1ccccc1N(CN1C(=O)CSC1=O)C(=O)CCl | 188 to 191 °C
19 | Cc1cn(-c2ccc(N)cc2)cn1 | 122 to 125 °C
20 | COc1ccc(C(=O)Nc2ccc(Cl)c(Cl)c2)cc1NC(=S)Nc1ccc(S(N)(=O)=O)cc1 | 190 to 193 °C
21 | COc1cccc(-c2ccc3ccc(NC(=O)c4cccc(Br)c4)nc3n2)c1 | 104 °C
22 | CC(CCC(=O)N(Cc1ccccc1)Cc1ccccc1)(c1ccc(O)cc1)c1ccc(O)cc1 | 203 to 207 °C
23 | CCCCCCCCCCCCc1ccc(N=C(C)c2ccccc2)cc1 | 47 °C
24 | COc1ccc(-c2nc(Br)c(C(F)(F)F)[nH]2)cc1 | 177 to 178 °C
25 | CNC(=O)c1cc(=O)c(-c2ccc(OC)c(OC)c2)co1 | 213 to 215 °C
26 | COC(C(=O)O)c1ccc2c(c1)C(C)(C)CCC2(C)C (racemic) | 135 to 136 °C

Row | Compound | melting point
27 | Oc1ccc2c(c1)Nc1ccccc1S2 | 207 to 208 °C
28 | OC(CNCCCCCCOCCCCc1ccccc1)c1ccc2c(n1)COC(c1ccccc1)O2 (stereo unspecified) | 67 to 73 °C
29 | CNc1cc(NS(=O)(=O)c2cccc(Cl)c2)nc(NC)n1 | 167 to 168 °C
30 | COC(=O)c1ccc(N2CC(CNC(C)=S)OC2=O)cc1F (stereo unspecified) | 152 to 154 °C
31 | CCCCCCCCCCCCCCCCC(O)CBr (stereo unspecified) | 53.5 to 54.5 °C
32 | O=S(=O)(c1ccccc1)N1CCCC1c1ccccc1 (racemic) | 116 °C
33 | Cc1cn(-c2ccc(N)cc2C(F)(F)F)cn1 | 141 to 143 °C
34 | COC(=O)CCC(=O)c1ccc(-c2ccc(Cl)cc2)o1 | 99 to 100 °C
35 | CC(=O)Nc1ccc(S(=O)(=O)Nc2ccc(S(=O)(=O)C=CC#N)cc2)cc1 | 204 to 205 °C
36 | Cc1ccc(C(CCCOC(=O)Nc2ccccc2)=NNC(N)=S)cc1 | 170 to 173 °C
37 | COc1ccccc1N1CCN(C(=O)[C@@H](Cc2ccncc2)NC(=O)OC(C)(C)C)CC1 | 105 °C
38 | Nc1ccc(S(=O)(=O)NC(=S)NC23CC4CC(CC(C4)C2)C3)cc1 | 176 to 179 °C
39 | CN(c1ccccc1C=CC1=NCCC1)C1CCCCC1 | 163 to 164 °C
40 | CC1(C)Oc2ccc(C#N)cc2C(Sc2ccccn2)C1O (stereo unspecified) | 101 to 103 °C
41 | CC1C(=O)N(C)C(=O)N(C)C1=O | 83 to 85 °C
42 | CC(C)(C)NS(=O)(=O)c1ccc(S(N)(=O)=O)s1 | 116 to 120 °C
43 | Cc1cccc(-c2[nH]c(C(C)C)nc2-c2cccc(-c3ccc(S(=O)(=O)N4CCN(C)CC4)cc3)c2)n1 | 110 to 116 °C
44 | C(=NC1CCCCC1)c1cccc(Oc2ccccc2)c1 | 72 to 74 °C
45 | CC(C)(CO)N1CC(COc2cccc(Cl)c2)OC1=O (stereo unspecified) | 81 to 82 °C
46 | O=c1c2cc(-c3nnn[nH]3)ccc2oc2ncccc12 | > 300 °C
47 | Cc1cc(SC(C)C)c(NC(=O)CCCCCSc2nc3ccccc3o2)c(SC(C)C)n1 | 98 to 100 °C
48 | CCN(CC)C(=O)c1ccc2ccccc2c1/C=C/c1ccccc1 | 86 to 89 °C
49 | ClCc1ccc(OCCOc2ccccc2)cc1 | 159 to 160 °C
50 | CCCCC(F)c1nc[nH]c(=O)c1Cl (stereo unspecified) | 157 to 160 °C
51 | COC1OC(=O)CC(C)(C)C1O (stereo unspecified) | 72 °C
52 | O=C(O)c1[nH]c(=O)n2c1CN=C(c1ccccc1Cl)c1cc(Cl)ccc1-2 | 236 to 238 °C

Row | Compound | melting point
53 | CN(C)C(=Cc1ccccc1[N+](=O)[O-])C(=O)CN1C(=O)c2ccccc2C1=O | 230 to 233 °C
54 | CCc1nc2c(cnn2CC)c(NC2CCOCC2)c1CNC(=O)c1cccc(C(=O)NCc2ccc(OC)c(-c3cccc(CN4CC(C)NC(C)C4)c3)c2)c1 (stereo unspecified) | 127 to 129 °C
55 | CCOC(Oc1cc(Cl)cc(Cl)c1)C(=O)NC(C)(C)C (stereo unspecified) | 69 to 71 °C
56 | Cc1ccc(S(=O)(=O)Oc2cc(C(C)(C)C)c(SC3=C(O)CC(CCc4ccc(O)cc4)(C4CCCCC4)OC3=O)cc2C)cc1 (stereo unspecified) | 105 °C
57 | O=c1cc(-c2ccccc2)oc2cccc(OCCCCCCI)c12 | 166 to 168 °C
58 | COCC(O)c1nc2c(C(F)(F)F)cccc2c(O)c1C(=O)Nc1nccs1 (stereo unspecified) | 216 to 218 °C
59 | O=Cc1csc(N(c2ccccc2)c2ccccc2)n1 | 160 to 161 °C
60 | CC(C)c1nc(-c2ccccc2)c(-c2ccccc2)c(-c2ccc(F)cc2)c1CO | 169 to 171 °C
61 | CCCn1c(=O)c2c(NC)n(C(=O)OC)nc2n(Cc2cccc(Cl)c2)c1=O | 164 to 166 °C
62 | CC(O)Cn1cnc2cnc3ccccc3c21 (stereo unspecified) | 171 °C
63 | O=C(c1cc2cc(OCc3ccccc3)ccc2[nH]1)C12CC3CC(CC(C3)C1)C2 | 189 to 191 °C
64 | COc1c(S(=O)(=O)Cl)ccc(Cl)c1C | 88 to 92 °C
65 | CC1=C(c2ccccc2)C(c2ccccc2Cl)C([N+](=O)[O-])=C(C)N1 (stereo unspecified) | 232 °C
66 | CCCN(CCC)C1Cc2cc3c(cc2C1)C(=O)N(Cc1ccccn1)C3=O | 130 to 135 °C
67 | CCOc1ccc2c(c1)n(C1CCCCC1)c(=O)n2S(=O)(=O)c1ccc(C(=O)NC2Cc3ccccc3C2)cc1OC | 160 °C
68 | CC1(C)COC(=O)C(C(=O)Nc2cccc(C(F)(F)F)c2)C1=O (stereo unspecified) | > 200 °C
69 | CN(C)C=NS(=O)(=O)c1cc(CCNC(=O)C(F)(F)F)ccc1O | 160 to 161 °C
70 | CN(C)C1(Cc2ccccc2)CCC(O)(c2cc3ccccc3n2C)CC1 (stereo unspecified) | 105 to 107 °C
71 | CCN(CC)C1=C2N=c3cc(Cl)ccc3=C2Oc2ccccc2N1Cc1ccccc1 | 132 to 134 °C
72 | Nc1ncnc2c1c(-c1cccc(Cl)c1)cn2-c1ccccc1 | 173 to 175 °C
73 | O=[N+]([O-])c1cc(CC(O)(Cn2cncn2)Cn2cncn2)ccc1Cl | 136 to 137 °C
74 | C=CC(C)(C)C(O)(COc1ccc(-c2ccccc2)cc1)Cn1ccnc1 (stereo unspecified) | 151 to 153 °C
75 | CCCCCCCCCCCCCCCCOCC(CO)Oc1cc(-c2ccccc2)on1 (stereo unspecified) | 45.5 to 46.5 °C
76 | CN1C(=O)CC[C@]2(C)c3ccc(C=Cc4ccccc4)cc3CC[C@@H]12 | 173 to 175 °C
77 | CS(=O)c1ncc(Br)cn1 (stereo unspecified) | 90 °C
78 | CN(C)S(=O)(=O)n1cc(-c2ccccc2[N+](=O)[O-])nc1C#N | 111 to 114 °C

Row | Compound | melting point
79 | CCN(CC)Cc1nc(-c2ncn3c2[C@@H]2CCN2C(=O)c2c(Br)cccc2-3)no1 | 206 to 209 °C
80 | CC1(CCSc2nc3ccccc3o2)Cn2cc([N+](=O)[O-])nc2O1 (stereo unspecified) | 174 to 175 °C
81 | O=C(Cc1ccc(CCNS(=O)(=O)c2ccc(Cl)cc2)cc1)Nc1nnn[nH]1 | 168 to 170 °C
82 | COc1cc2c(cc1Br)CC/C2=C\C#N | 180 to 182 °C
83 | NC(=O)c1ccnc(-c2cccc3cc(Cc4cccc(C(F)(F)F)c4)sc23)c1 | 177 to 178 °C
84 | NC(=S)c1ncccc1O | 150 to 151 °C
85 | Fc1ccc2[nH]c(CC3CCN(CC4CCc5ccccc5O4)CC3)cc2c1 (stereo unspecified) | 187 to 190 °C
86 | Cc1ccc2c(c1)C=Cc1cc(C)ccc1C2c1cn(Cc2nc(C(=O)O)co2)c(=O)[nH]c1=S | 273 °C
87 | CC12CCC(OC(=O)c3ccc(O)cc3)CC1=CCC1C2CCC2(C)C(=NO)CCC12 (stereo unspecified) | 177 to 182 °C
88 | CC(C)(C)OC(=O)N1CCC(c2ccc(N3C[C@@H](CCO)OC3=O)cc2F)CC1 | 120 to 122 °C
89 | CC(C)(C)C(=O)c1c[nH]c2ncc(-c3ccc(S(N)(=O)=O)cc3)nc12 | 277 to 278 °C
90 | CN1CCN(c2ccc(-c3[nH]nc4c3C(=O)c3c(NC(=O)NN5CCOCC5)cccc3-4)cc2)CC1 | 245 °C
91 | NC(=O)c1ccc(Nc2nc(OCC3CCCCC3)c3nc[nH]c3n2)cc1 | 156 to 158 °C
92 | O=S(=O)(Nc1ccccc1/C=C/c1ccncc1)c1ccc(Cl)cc1 | 218 to 220 °C
93 | c1cc2cc(-c3cn([C@H]4CN5CCC4CC5)nn3)ccc2o1 | 178 °C
94 | CC(C)(C)C(=O)C1CCCS1(=O)=O (stereo unspecified) | 53 to 56 °C
95 | S=C(NCCN1CCOCC1)Nc1nccs1 | 150 to 152 °C
96 | COc1ccc(-n2c(=O)n(OCc3ccccc3)c(=O)c3cc(F)c(N4CCCC4)nc32)cc1 | 186 to 188 °C
97 | COC(=O)C1Cc2sc3c(c2C1)C(c1ccccc1Cl)=NCC(=O)N3 (stereo unspecified) | 178 to 181 °C
98 | Cc1c(CCC#N)c2c(c(C(C)C)c1OCc1ccccc1)CC(C)(C)O2 | 158 to 159 °C
99 | COc1ccc2[nH]c3c(c2c1)C(C(=O)O)CCC3 (stereo unspecified) | 175 to 177 °C
100 | Nc1nc2ccc(SC(F)(F)F)cc2s1 | 155 °C
101 | Cn1cc(-c2cc3cccnc3[nH]2)c2cc(OCC(O)CO)ccc21 (stereo unspecified) | 182 to 185 °C
